What is called IC50 is the concentration that inhibits the measured activity by half.

Calls of active or inactive are those of the source. The rule behind the calls is not given here. Some results are limits rather than exact numbers.

In PubChem BioAssay AID849 (SRMLSC, 2007) one finds IC50 data, which are given here for 104 compounds.

This assay concerns Saccharomyces cerevisiae lifespan shortening, growth inhibition. Put plainly: Saccharomyces cerevisiae growth inhibition potency – dose response (AID 849).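 Note: yeast growth read as optical density after two days at 30 degrees C.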
On to `CCCCCCOC(=O)Sc1nc2ccccc2o1`, for which the half-inhibitory concentration (IC50) was 20.2 µM.
Turning to `CC(C)CC(=O)/C(=C\c1ccc(Cl)cc1Cl)n1cncn1`, the concentration for half-maximal inhibition (IC50) is 15.8 µM.
For `O=c1c2ccccc2nc2sc3ccccc3n12` the value was 27.8 µM.
Turning to `Cc1ccnn2cc3c(=O)n(C)c(=O)n(C)c3c12`, the IC50 was 23.2 µM.
Then `CCOc1ccc(NCc2nc3ccccc3n2CCOc2ccccc2)cc1`, with > 100 µM (inactive).
Consider `CC(Oc1ccc(Cl)cc1Cl)C(=O)NC1=NN(c2ccccc2)C(=O)C1` (centres undefined), for which the concentration for half-maximal inhibition (IC50) is 9.36 µM.
For `CC(C)(C)c1nnc(N/N=C/c2cc(Br)ccc2O)n(N)c1=O` the value was 50 µM; for `Nc1[nH]c(=O)ncc1F`, 11.8 µM; for `c1ccc2c(c1)C(=Nn1cnnc1)c1ccccc1-2`, > 100 µM (inactive).
For `CCc1ccc2c(c1)C1(NN=C(c3ccccc3)S1)C(=O)N2` (centres undefined) the value was 24.6 µM; for `CCCCOc1ccc(C(=O)NNC(=S)NC(=O)CC)cc1`, 41.5 µM.
As for `CC(=O)NC(CCS(C)(=O)=O)C(=O)Nc1ccc2c(c1)OCO2` (centres undefined), the IC50 is > 100 µM (inactive).
On to `Cc1ccc(C(=O)OCn2ncc(Cl)c(Cl)c2=O)cc1`, for which the IC50 is 3.73 µM.
Then `CC(C)(C)c1ccc(NC(=O)COC(=O)c2ccc([N+](=O)[O-])s2)cc1`, with 34 µM.
Then `O=C(Oc1ccc(Cl)c2cccnc12)c1ccco1`, with 14.6 µM; and `CCCc1ccc(Oc2cn[nH]c2-c2ccc(O)c(C)c2O)cc1`, with 6.65 µM; and `Cc1nc2c(c(C)c1C#N)C(=O)c1ccccc1-2`, with 38.8 µM.
Regarding `Cc1cc(Cl)ccc1N=c1ssnc1Cl`, the IC50 was > 100 µM (inactive).
Then `Oc1c(Br)cc(Br)cc1Oc1ccc(Br)cc1Br`, with > 100 µM (inactive).
Then `CCc1cc2c(cc(C(=O)O)n2C)s1`, with 38.2 µM; and `C=C(C)COc1ccc(-c2[nH]ncc2-c2ccccc2)c(O)c1`, with 20.4 µM.
For `Oc1c(Cl)cc(Cl)c2c1NCCC2` the value was 17.4 µM; for `CC(Sc1cccc[n+]1[O-])C(=O)Nc1cccc(S(=O)(=O)N2CCOCC2)c1` (centres undefined), 6.11 µM; for `Oc1ccc(CN2CCCCC2)c2cccnc12`, 46.4 µM.
As to `Cc1ccc(-n2nnc3c(=O)n(CC(=O)N4CCC(C)CC4)cnc32)cc1`, the IC50 is > 100 µM (inactive).
For `CCCCCCCCC/C(=N\O)c1ccccn1` the value was 4.51 µM; for `CCOc1ccc(N/N=C(/C#N)C(N)=O)cc1`, 7.82 µM; for `Cc1ccc2c(c1)-c1nc3ccccc3cc1C2=NC1CCCCC1`, 35.6 µM.
For `Oc1ccc(COCc2ccccc2)c2cccnc12` the value was 6.43 µM; for `Clc1ccc(CCNc2nc3ccccc3s2)cc1`, > 100 µM (inactive).
Consider `CCCCSc1nc(C)c(C(C)=O)cc1C#N`, for which the IC50 is > 100 µM (inactive).
Consider `c1ccc(N(c2ccccc2)c2nc(-n3ccnc3)nc(-n3ccnc3)n2)cc1`, for which the IC50 is > 100 µM (inactive).
For the compound `COc1cccc(CC(=O)Nc2ccc3nc(C)sc3c2)c1`, the IC50 is 35 µM.
For `O=C(/C=C/c1ccccc1)c1cc(Br)ccc(=O)c1O` the value was 10.1 µM; for `OC(CNCC1CCCO1)Cn1c2ccc(Br)cc2c2cc(Br)ccc21` (centres undefined), > 100 µM (inactive); for `COc1ccc(-c2[nH]ncc2-c2ccc(Cl)cc2)c(O)c1`, > 100 µM (inactive).
In the case of `O=C(Nc1nnc(C2CC2)s1)c1ccccn1`, the concentration for half-maximal inhibition (IC50) was 42.6 µM.
For `OC(CN1CCN(c2ccccn2)CC1)Cn1c2ccc(Cl)cc2c2cc(Cl)ccc21` (centres undefined) the value was 47.5 µM; for `CNC(=S)N/N=C(\C)c1ccc(N2CCOCC2)cc1`, > 100 µM (inactive); for `Oc1c(CN2CCN(c3ccccn3)CC2)cc(Cl)c2cccnc12`, 37.2 µM.
As to `CCCCCCc1ccc(-c2ncc(N)cn2)cc1`, the 50% inhibitory concentration (IC50) was 25.9 µM.
As to `CCn1c(=O)c(C(=O)Nc2nc3ccccc3[nH]2)c(O)c2ccccc21`, the IC50 is > 100 µM (inactive).
Then `CCOC(=O)c1cnc(-n2nc(C)cc2C)nc1NC1CCCCC1`, with 20 µM; and `Cc1ccccc1C(=O)O/N=C/c1c(N2CCOCC2)n(C)c2ccccc12`, with 49.9 µM.
For `CCc1cccc(C)c1NC(=S)NCCc1c(C)[nH]c2ccc(C)cc12` the value was 41 µM; for `O=C(O)c1ccccc1C(=O)NNc1ccc(Cl)cc1`, 4.61 µM; for `CC(C)(C)C(O)C(Oc1ccc(Cl)cc1)n1cncn1` (centres undefined), 3.14 µM.
Turning to `Oc1c(I)cc(Cl)c2cccnc12`, the IC50 is 23 µM.
In the case of `CC(C)(Oc1ccc(Cl)cc1)C(=O)NC1=NN(c2ccccc2)C(=O)C1`, the half-inhibitory concentration (IC50) was 18.2 µM.
As for `CCN1/C(=C/c2ccc3cc(C)ccc3[n+]2CC)Sc2ccccc21`, the half-inhibitory concentration (IC50) is 4.48 µM.
Then `Cc1conc1NC(c1cccs1)c1ccc2cccnc2c1O` (centres undefined), with 40.8 µM; and `Cc1nc2ccc(NC(=O)c3cc([N+](=O)[O-])cc([N+](=O)[O-])c3Cl)cc2s1`, with 28.9 µM.
For the compound `O=C(Oc1csc(=S)n1C(=O)c1ccccc1)c1ccccc1`, the IC50 was > 100 µM (inactive).
For `COc1cc(Br)cc(/C=N/c2ncn[nH]2)c1O` the value was 28.8 µM; for `CN1CSC(=S)N(C)C1`, 17.3 µM.
Then `O=C(N/N=C1\CC2CC=CC12)c1ccc(COc2ccccc2)cc1` (centres undefined), with > 100 µM (inactive); and `Cn1c(=O)c2nc(-c3ccccc3)oc2c2ccccc21`, with > 100 µM (inactive); and `O=C(O)Cc1cc(I)c(Oc2ccc(O)c(I)c2)c(I)c1`, with 23.9 µM.
For `c1cnc2c(c1)ccc1cccnc12` the value was 13.3 µM.
For the compound `COC(=O)c1ccc(C(=O)OC)c(NC(=O)CSc2cccc[n+]2[O-])c1`, the half-maximal inhibitory concentration (IC50) is 0.822 µM.
For `O=[N+]([O-])c1cc(/C=N/O)ccc1Sc1ccccc1` the value was > 100 µM (inactive); for `Cc1cc(C)cc(N=Cc2ccc([N+](=O)[O-])s2)c1`, 13.1 µM.
For `C(=N\c1ncnc2sccc12)/NOCc1ccccc1` the value was 23.2 µM; for `CCc1ccc(S(=O)(=O)NCCc2cn3ccsc3n2)s1`, > 100 µM (inactive); for `Oc1c(Br)cc(Br)cc1C=Nc1ccc2c(c1)OCO2`, > 100 µM (inactive).
For `Oc1ccc(Cl)cc1Cc1cc(Cl)ccc1O` the value was 21 µM.
Turning to `O=C1CSC(=S)N1c1cccnc1`, the half-maximal inhibitory concentration (IC50) was 31.9 µM.
For `CC1=C/C(=N\OS(=O)(=O)c2ccccc2)C(C)=CC1=O` the value was 1.54 µM.
For the compound `CC(=O)N1c2ccccc2C2(O)N=C(C)SC12` (centres undefined), the IC50 is > 100 µM (inactive).
For `O=C(COc1ccccc1)N1CCN=C1SCc1cccnc1` the value was > 100 µM (inactive); for `CN(C)c1ccc(/C=C/c2ccc3ccccc3[n+]2C)cc1`, 26.4 µM; for `CCc1cccc(CC)c1NC(=S)NCc1ccc2[nH]c(C)cc2c1`, > 100 µM (inactive).
For `COc1ccc(-c2nnc3sc(C(C)N4C(=O)c5ccccc5C4=O)nn23)cc1` (centres undefined) the value was > 100 µM (inactive); for `Oc1c(N=Nc2ccccn2)ccc2ccccc12`, 15.5 µM; for `CCSc1nc(N)nc(-c2cccs2)c1C#N`, 24.8 µM.
Then `CCOC(=O)C1C(C)N=C2SCC(=O)N2C1c1cccc(Br)c1` (centres undefined), with > 100 µM (inactive); and `COc1ccc(N/N=C(\C#N)C(N)=O)cc1`, with > 100 µM (inactive); and `CC(=O)c1c(C)oc2c1C(=O)c1ccccc1C2=O`, with > 100 µM (inactive).
On to `Cc1ccc(-c2cc(C(=O)N3N=C(C(F)F)CC3(O)C(F)F)c3ccccc3n2)cc1C` (centres undefined), for which the IC50 was > 100 µM (inactive).
For the compound `Cc1cc(C)nc(N/N=C/C2=C(N3CCOCC3)C(=C\c3ccc(Cl)cc3)/CC2)n1`, the IC50 was > 100 µM (inactive).
For `COc1ccc(/C(C)=N/NC(=O)c2ccc(CSc3cccc4cccnc34)cc2)cc1OC` the value was > 100 µM (inactive).
Then `Cc1onc(-c2ccccc2)c1C(=O)NC(=S)NNC(=O)c1ccc(O)cc1O`, with > 100 µM (inactive); and `COc1ccccc1-n1c(=O)oc2ccc(Cl)cc2c1=O`, with > 100 µM (inactive).
Then `COc1cccc(/C=N/N2C(=O)CSC2=S)c1O`, with > 100 µM (inactive); and `O=C(CCc1ccccc1)NNC(=S)NC(=O)c1ccccc1`, with > 100 µM (inactive).
`Cc1cc(C(=O)COC(=O)c2ccc[nH]c2=O)c(C)n1-c1ccc(Br)cc1`: the IC50 is > 100 µM (inactive).
For `C/C(=N\Nc1ccc(Cl)cc1)c1ccccn1` the value was 43.5 µM; for `Cc1nc(N/N=C/c2ccccn2)sc1C`, 33.7 µM.
For `Clc1ccc(N/N=C/c2ccncc2)cc1Cl` the value was > 100 µM (inactive); for `COC(=O)CSC1=NS(=O)(=O)c2ccccc21`, > 100 µM (inactive).
`O=C(Nc1cc(C(F)(F)F)ccc1Cl)C(Sc1cccc[n+]1[O-])c1ccccc1` (centres undefined): the IC50 is 4.89 µM.
For `COc1ccc(CCNC(=O)c2cnn3c(C(F)F)cc(C)nc23)cc1OC` the value was > 100 µM (inactive).
For `CCCCN(CCCC)C(=S)N/N=C/c1c(C)[nH]n(-c2ccccc2)c1=O` the value was 38.9 µM; for `COCC(C)OC(=O)/C(C#N)=C\c1coc2ccc(C)cc2c1=O` (centres undefined), > 100 µM (inactive); for `COc1ccc(C(=O)/C=C/Nc2ccc(C)cn2)cc1OC`, > 100 µM (inactive).
Regarding `CCOC(=O)N1CCN(C(=O)Cn2nc(C)c3sc4ccccc4c3c2=O)CC1`, the IC50 was > 100 µM (inactive).
Regarding `Cc1csc(NC(=O)Cc2coc3cc(C)c(C(C)C)cc23)n1`, the IC50 was > 100 µM (inactive).
Take `Cc1nn2c(-c3ccco3)nnc2c2ccccc12`: the half-inhibitory concentration (IC50) was 26.5 µM.
Then `CCCc1cc(C(=O)Cc2ccc(F)cc2)c(O)cc1O`, with 48.3 µM; and `Cc1ccc(-n2c(Cl)c(Cl)nc(Cl)c2=O)cc1`, with 14.6 µM.
Turning to `O=C(O)CSc1cccc[n+]1[O-]`, the IC50 is 33.9 µM.
Then `CC1CCCC2(C1)NC(=S)N(c1ccccc1)N2` (centres undefined), with 38.2 µM; and `Cc1ccc(-n2c(C)cc(C(=O)COC(=O)c3ccc[nH]c3=O)c2C)cc1`, with 18.1 µM; and `OCc1ccc(O)c2ncccc12`, with 32.2 µM.
